Assay results published in patent US20160022733A1, “NOVEL FORMULA OF IRON BASED NANOCOMPOSITES FOR RAPID AND EFFICIENT TREATMENT OF IRON DEFICIENCY ANEMIA” (NANOTECH FOR PHOTOELECTRONICS RESEARCH, priority 2013, published 2016).

Test system: Life-threatening iron-deficiency anemic rats
Assay: Hemoglobin concentration after single oral dose in rats with induced life-threatening hemorrhagic anemia
Format: in vivo, Albino rats of the Wisconsin Holtzman strain
Conditions: Ferric Chloride given orally to anemic rats (group 4)
Description: Part II: Animal Trial Experimental Design • Five weeks old Albino rats of the Wisconsin Holtzman strain, weighing 150-160 g, were divided into six, as showing below Rats of groups 1-5 were exposed daily to blood withdrawal from inner canthus of eyes. The hemoglobin concentration of collected blood samples in heparinized tubes was measured by colorimetric method using commercially available kit (Drabkin's solution). […] Rats of control group were not exposed to any blood withdrawal. After induction of Life-threatening hemorrhagic anemia, all rats were fasted for 6 hours prior their oral administration with different treatments and doses. […] Two control groups were allocated for this pilot experiment; group 5 where rats were exposed to Life-threatening hemorrhagic anemia and treated with the vitamins mixture dissolved with Nano sized magnetite (Ascorbic, folic and nicotinic acids), and group 6 where rats were non-anemic and administered distilled water (Table 1). Rats of different groups were left for 3 days after oral administration of different treatments, fed ad libitum on balanced diet containing iron and clean tap water. Blood samples were collected on 4th and 7th day after dosing and Hb concentration was measured using colorimetric method.

## [Cl][Fe]([Cl])[Cl] [Ferric Chloride]
  Effect on Hb. concentration: corrected the Hb. concentration but achieved neither the levels in Nano-sized magnetite groups nor the level in control non-anemic rats
